The source of these data is US11377453B2, “Crystal of compound having JAK-inhibiting activity” (NIPPON SHINYAKU CO., LTD., priority 2016, dated 2022).

Holding throughout (format): biochemical
For one assay, the target named is T1, JAK3 (Homo sapiens, UniProt P52333).
T1 construct: purchased Carna Biosciences, Inc
T1 sequence (P52333 1-1124): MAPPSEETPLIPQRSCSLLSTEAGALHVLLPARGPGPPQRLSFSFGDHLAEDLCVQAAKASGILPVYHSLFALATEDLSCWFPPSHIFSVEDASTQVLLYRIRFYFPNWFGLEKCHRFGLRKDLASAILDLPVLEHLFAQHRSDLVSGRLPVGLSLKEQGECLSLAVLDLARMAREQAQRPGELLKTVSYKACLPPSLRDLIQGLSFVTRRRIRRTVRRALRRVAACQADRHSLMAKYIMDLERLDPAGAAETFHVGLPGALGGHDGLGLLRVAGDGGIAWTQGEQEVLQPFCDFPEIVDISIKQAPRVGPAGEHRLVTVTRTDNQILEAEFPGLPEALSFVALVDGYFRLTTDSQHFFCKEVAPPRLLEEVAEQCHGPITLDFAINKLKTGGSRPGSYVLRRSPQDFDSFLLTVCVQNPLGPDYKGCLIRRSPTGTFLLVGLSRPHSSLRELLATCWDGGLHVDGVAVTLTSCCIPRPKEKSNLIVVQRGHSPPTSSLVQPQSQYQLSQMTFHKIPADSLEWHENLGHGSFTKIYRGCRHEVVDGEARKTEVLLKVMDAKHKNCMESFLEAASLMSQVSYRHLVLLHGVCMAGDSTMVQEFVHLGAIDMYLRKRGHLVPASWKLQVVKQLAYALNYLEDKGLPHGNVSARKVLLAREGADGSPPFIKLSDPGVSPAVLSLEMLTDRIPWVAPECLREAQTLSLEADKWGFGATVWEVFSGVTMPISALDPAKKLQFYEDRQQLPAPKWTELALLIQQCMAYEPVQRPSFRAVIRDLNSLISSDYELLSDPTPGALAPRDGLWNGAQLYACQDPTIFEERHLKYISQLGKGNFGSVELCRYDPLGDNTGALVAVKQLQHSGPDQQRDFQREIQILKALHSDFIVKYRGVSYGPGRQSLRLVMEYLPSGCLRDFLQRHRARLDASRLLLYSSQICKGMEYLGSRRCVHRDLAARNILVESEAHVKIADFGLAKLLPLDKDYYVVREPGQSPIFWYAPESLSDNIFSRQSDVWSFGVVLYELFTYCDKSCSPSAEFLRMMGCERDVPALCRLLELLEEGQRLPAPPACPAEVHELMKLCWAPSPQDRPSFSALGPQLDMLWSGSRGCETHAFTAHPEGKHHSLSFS
The assay is described as follows: JAK tyrosine kinase inhibitory activity in the presence of 1 mM ATP (ELISA), JAK3. On the procedure:
(§1) The test compound was dissolved in dimethyl sulfoxide (DMSO) to 10 mM and further diluted with DMSO to the concentrations of 1000, 100, 10, 1, 0.1 and 0.01 μM, respectively. For JAK1, these solutions of the test compound at the six concentrations 10 mM, 1000 μM, 100 μM, 10 μM, 1 μM and 0.1 μM were used. For JAK2 and JAK3, these solutions of the test compound at the six concentrations 1000 μM, 100 μM, 10 μM, 1 μM, 0.1 μM and 0.01 μM were used. The test compound solutions were diluted further to 20-fold with an assay buffer to obtain a sample solution. 15 mM Tris-HCl (pH7.5), 0.01 (v/v) % Tween-20 and 1 mM dithiothreitol were used as an assay buffer. DMSO was diluted to 20-fold with the assay buffer and was used as a negative control.
(§2) The activity was determined by ELISA method. Each of the sample solutions was added to a streptavidin coated 96-well plate (DELFIA Strip Plate 8×12 well, PerkinElmer) at 10 μL/well (n=2). […] Finally, JAK tyrosine kinase (Carna Biosciences, Inc.), which was previously diluted with the assay buffer to 7.5 nM for JAK1 and 0.75 nM for JAK2 and JAK3, was added to the plate at 20 μL/well, and the plate was incubated at 30° C. for 1 h. The plate was washed four times with buffer (50 mM Tris-HCl (pH 7.5), 150 mM NaCl, 0.02 (v/v) % Tween-20). A blocking buffer (0.1% Bovine Serum Albumin, 50 mM Tris-HCl (pH 7.5), 150 mM NaCl, 0.02 (v/v) % Tween-20) was added to the plate at 150 μL/well, and the plate was blocked at 30° C. for 1 h. The blocking buffer was removed, and a horse radish peroxidase-labeled anti-phosphorylated tyrosine antibody (BD Biosciences, Inc.) (diluted to 10000-fold with the blocking buffer) was added to the plate at 100 μL/well, and the plate was incubated at 30° C. for 30 min. The plate was washed with the washing buffer four times, and 3,3′,5,5′-tetramethylbenzidine solution (Nacalai Tesque) was added to the plate at 100 μL/well to develop the color for 10 minutes. To the plate was added 0.1 M sulfuric acid at 100 μL/well to stop the reaction. The absorbance at 450 nm was measured using a microplate reader (BIO-RAD).
In general terms: ELISA stands for enzyme-linked immunosorbent assay.

For the next assay, the target named is T2, JAK1 (Homo sapiens, UniProt P23458).
T2 construct: purchased Carna Biosciences, Inc
T2 sequence (P23458 whole entry): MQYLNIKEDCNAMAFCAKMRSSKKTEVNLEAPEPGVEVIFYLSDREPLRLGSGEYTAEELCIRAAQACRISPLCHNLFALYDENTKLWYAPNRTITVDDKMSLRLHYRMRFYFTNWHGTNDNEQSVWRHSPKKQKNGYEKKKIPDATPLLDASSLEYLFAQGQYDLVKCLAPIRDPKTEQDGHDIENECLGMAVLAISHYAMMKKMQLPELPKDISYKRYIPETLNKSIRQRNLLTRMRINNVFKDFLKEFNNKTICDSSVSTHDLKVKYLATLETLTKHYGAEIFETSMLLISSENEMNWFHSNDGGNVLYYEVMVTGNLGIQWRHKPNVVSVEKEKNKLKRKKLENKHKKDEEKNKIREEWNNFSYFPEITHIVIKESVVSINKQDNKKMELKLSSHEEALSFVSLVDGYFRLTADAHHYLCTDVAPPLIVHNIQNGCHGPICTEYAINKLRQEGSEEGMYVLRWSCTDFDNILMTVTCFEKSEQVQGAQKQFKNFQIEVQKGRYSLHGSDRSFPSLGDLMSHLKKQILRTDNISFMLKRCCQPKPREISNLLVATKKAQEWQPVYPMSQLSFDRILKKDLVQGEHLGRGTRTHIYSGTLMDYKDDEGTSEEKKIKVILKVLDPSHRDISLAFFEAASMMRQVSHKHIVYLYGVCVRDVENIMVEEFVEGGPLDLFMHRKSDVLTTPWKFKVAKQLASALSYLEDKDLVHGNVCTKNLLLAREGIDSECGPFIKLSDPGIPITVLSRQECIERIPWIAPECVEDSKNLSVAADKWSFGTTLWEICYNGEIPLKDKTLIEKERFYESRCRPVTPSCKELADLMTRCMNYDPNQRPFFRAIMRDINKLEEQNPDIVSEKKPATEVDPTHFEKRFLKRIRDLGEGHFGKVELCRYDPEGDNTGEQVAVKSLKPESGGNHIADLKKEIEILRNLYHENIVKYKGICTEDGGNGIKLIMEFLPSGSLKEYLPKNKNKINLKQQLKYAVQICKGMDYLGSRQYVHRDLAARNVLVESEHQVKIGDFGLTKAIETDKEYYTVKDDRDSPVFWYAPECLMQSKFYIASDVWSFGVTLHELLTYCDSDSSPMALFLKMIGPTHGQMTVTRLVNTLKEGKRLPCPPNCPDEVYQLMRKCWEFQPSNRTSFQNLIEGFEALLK
As to the kind of experiment: JAK tyrosine kinase inhibitory activity in the presence of 1 mM ATP (ELISA), JAK1. The protocol:
as §1, §2

In another assay the target is T3, JAK2 (Homo sapiens, UniProt O60674).
T3 construct: purchased Carna Biosciences, Inc
T3 sequence (O60674 whole entry): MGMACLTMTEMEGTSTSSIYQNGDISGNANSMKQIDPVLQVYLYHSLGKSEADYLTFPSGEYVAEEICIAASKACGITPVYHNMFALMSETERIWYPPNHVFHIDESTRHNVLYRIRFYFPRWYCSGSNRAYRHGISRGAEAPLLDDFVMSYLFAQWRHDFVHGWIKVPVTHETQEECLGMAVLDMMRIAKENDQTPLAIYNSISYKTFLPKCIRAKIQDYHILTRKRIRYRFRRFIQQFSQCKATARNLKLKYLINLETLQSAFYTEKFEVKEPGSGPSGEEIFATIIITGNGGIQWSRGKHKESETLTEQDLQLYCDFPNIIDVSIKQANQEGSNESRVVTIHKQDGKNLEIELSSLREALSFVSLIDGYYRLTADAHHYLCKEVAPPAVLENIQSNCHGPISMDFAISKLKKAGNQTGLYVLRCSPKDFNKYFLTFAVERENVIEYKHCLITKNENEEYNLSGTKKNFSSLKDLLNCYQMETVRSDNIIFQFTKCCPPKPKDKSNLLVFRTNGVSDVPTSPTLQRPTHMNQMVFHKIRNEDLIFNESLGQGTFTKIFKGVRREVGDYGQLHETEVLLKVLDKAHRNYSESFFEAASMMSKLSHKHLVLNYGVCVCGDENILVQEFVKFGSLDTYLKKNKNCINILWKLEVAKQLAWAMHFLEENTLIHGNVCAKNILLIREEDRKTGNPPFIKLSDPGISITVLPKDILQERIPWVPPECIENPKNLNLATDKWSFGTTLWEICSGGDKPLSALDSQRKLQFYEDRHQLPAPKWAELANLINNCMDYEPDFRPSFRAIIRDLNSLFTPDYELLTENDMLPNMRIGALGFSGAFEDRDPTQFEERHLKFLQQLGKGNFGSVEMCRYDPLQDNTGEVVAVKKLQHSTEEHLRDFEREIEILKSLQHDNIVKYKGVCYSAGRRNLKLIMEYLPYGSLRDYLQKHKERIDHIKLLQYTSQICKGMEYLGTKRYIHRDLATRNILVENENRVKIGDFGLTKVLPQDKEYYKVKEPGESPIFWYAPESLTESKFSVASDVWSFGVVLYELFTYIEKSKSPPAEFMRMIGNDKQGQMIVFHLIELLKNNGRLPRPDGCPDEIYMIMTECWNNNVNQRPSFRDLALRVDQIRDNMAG
As to the kind of experiment: JAK tyrosine kinase inhibitory activity in the presence of 1 mM ATP (ELISA), JAK2. The protocol: as §1, §2

Where a name gives a salt, the structure may show the parent alone.

Regarding `CC[C@H](C)Nc1cc(C(=O)N2CCC(NC(=O)OC)CC2)nc(-c2cnn3ccsc23)n1` [Example 1, Methyl [1-({6-[(2S)-butan-2-ylamino]-2-(pyrazolo [5,1-b][1,3]thiazol-7-yl)pyrimidin-4-yl}carbonyl)piperidin-4-yl]carbamate Tosylate Monohydrate], the 50% inhibitory concentration (IC50) stood at 3000 nM on JAK3, 310 nM on JAK1 and 3700 nM on JAK2.

In the case of `COC(=O)NC1CCN(C(=O)c2cc(N[C@@H](C)C3CC3)nc(-c3cnn4ccsc34)n2)CC1` [Example 3, Methyl (1-{[6-{[(1S)-1-cyclopropylethyl]amino}-2-(pyrazolo[5,1-b][1,3]thiazol-7-yl)pyrimidin-4-yl]carbonyl}piperidin-4-yl)carbamate Tosylate Monohydrate], the 50% inhibitory concentration (IC50) on JAK3 turned out to be 1900 nM; on JAK1 it was 270 nM; on JAK2 it was 2600 nM.

Turning to `CC[C@@H](C)Nc1cc(C(=O)N2CCC(NC(=O)OC)CC2)nc(-c2cnn3ccsc23)n1` [Example 2, Methyl [1-({6-[(2R)-butan-2-ylamino]-2-(pyrazolo[5,1-b][1,3]thiazol-7-yl)pyrimidin-4-yl}carbonyl)piperidin-4-yl]carbamate Tosylate Monohydrate], the IC50 on JAK3 was 6000 nM; at JAK1, 470 nM; on JAK2 it was 5700 nM.

By IC50 is commonly meant the concentration that gives 50% inhibition.
